In the OPERA property sets (Mansouri et al. 2018):

Settings: for log10 BCF / log10 biotransformation half-life (days): fish

Row | Compound | boiling point [°C] | melting point [°C] | further results
1 | FC(F)(F)c1cccc(C(F)(F)F)c1 | 116 |  | ready biodegradability: not readily biodegradable
2 | C=COCCCC | 94 | -92 | log10 vapour pressure (mmHg): 1.69
3 | CN1CCCCC1 | 107 |  | log10 Henry constant (atm·m³/mol): -4.46; log10 vapour pressure (mmHg): 1.29; ready biodegradability: not readily biodegradable; log10 BCF: 0.65
4 | CC(=O)OCC1CCCO1 (configuration not stated) | 193 |  | 
5 | COC(=O)CCCBr | 186 |  | 
6 | CCC(=O)OC1CCCCC1 | 193 |  | 
7 | COS(=O)OC | 126 |  | 
8 | O=C(O)c1ccc(Br)c([N+](=O)[O-])c1 |  | 204 | 
9 | C | -162 | -182 | log10 Koa: -0.38; log10 vapour pressure (mmHg): 5.67
10 | CCN(C)c1ccccc1 | 204 |  | 
11 | CCC(C)CCC=C(C)C (configuration not stated) | 163 |  | 
12 | CCOc1nc(F)cc2nc(S(=O)(=O)Nc3c(Cl)cccc3C(=O)OC)nn12 |  | 217 | 
13 | CCCCCCC(Br)CBr (configuration not stated) | 241 |  | 
14 | CCN(CC)c1ccccc1C | 209 | -60 | 
15 | CCCC/C=C\C(C)(C)O | 177 |  | 
16 | CC[Si](CC)(CC)O[Si](CC)(CC)CC | 233 |  | 
17 | CN1CC[C@]23C(=O)C[C@H]4C(=CCO[C@H]5CC(=O)N(c6c(O)cccc62)[C@H]3[C@H]54)C1 |  | 282 | 
18 | CCC(C)C(C)C(C)CC (configuration not stated) | 162 |  | 
19 | O=S(=O)(Cl)Cc1ccccc1 |  |  | ready biodegradability: readily biodegradable
20 | C#CC(C)(C)NC(=O)c1ccc(Cl)cc1 |  |  | log10 Koc (L/kg): 1.9
21 | Fc1c(F)c(F)c(S)c(F)c1F | 143 | -24 | 
22 | O=C1C(Cl)=C(Cl)C(=O)N1c1ccc(F)cc1 |  | 241 | 
23 | CC(C)(OOC(C)(C)c1ccccc1)c1ccccc1 | 396 |  | ready biodegradability: not readily biodegradable; log10 BCF: 2.62; log10 biotransformation half-life (days): -0.01
24 | Cc1cc(C)c(C)cc1C | 197 | 79.3 | log10 Koc (L/kg): 3.12; log10 biodegradation half-life (days): 0.845; log10 vapour pressure (mmHg): -0.277
25 | CC(C)OC(N)=O | 183 | 93 | 

Row | Compound | boiling point [°C] | melting point [°C] | further results
26 | CCCCCCCCCc1ccc(OP(=O)(Oc2ccccc2)Oc2ccccc2)cc1 | 471 |  | log10 Henry constant (atm·m³/mol): -7.85; log10 Koc (L/kg): 4.06
27 | Oc1ccc(N=Nc2ccccc2)c(O)c1 |  | 170 | 
28 | COc1ccc2c(=O)c3ccccc3oc2c1CN1CCCCC1 |  | 160 | 
29 | CCCCCC |  |  | log10 Koa: 2.4; log10 biodegradation half-life (days): 0.954; log10 vapour pressure (mmHg): 2.18; ready biodegradability: readily biodegradable
30 | O=C(Cl)C(Cl)Cl | 108 |  | log10 vapour pressure (mmHg): 1.36
31 | CC(N)c1ccccc1 (configuration not stated) | 185 |  | log10 BCF: 0.82
32 | O=C1C=CC(=O)c2ccccc21 |  | 128 | ready biodegradability: not readily biodegradable
33 | Cc1cccc(C(=O)O)c1 |  | 109 | log10 vapour pressure (mmHg): -3.63; ready biodegradability: readily biodegradable
34 | CCCCCCCCCOC(=O)c1ccc(N)cc1 |  | 69 | 
35 | C1CCC2=NCCCN2CC1 |  |  | ready biodegradability: not readily biodegradable
36 | CC(=O)OCCBr | 162 | -13.8 | 
37 | CN1CSCSC1 | 185 | 65 | 
38 | Cc1nnc(NS(=O)(=O)c2ccc(N)cc2)s1 |  | 208 | 
39 | CCCCCCCCCCCCOC(=O)c1ccc(N)cc1 |  | 82 | 
40 | COc1cc2nc(N3CCN(C(=O)C4CCCO4)CC3)nc(N)c2cc1OC (configuration not stated) |  | 273 | 
41 | O=C(O)[C@@H](S)[C@@H](S)C(=O)O |  | 193 | 
42 | CCN(CC)c1ccc(C(=O)c2ccccc2C(=O)O)c(O)c1 |  |  | ready biodegradability: not readily biodegradable
43 | C=C(C)C(=O)OCCN(CC)CC |  |  | ready biodegradability: readily biodegradable
44 | O=C(O)c1ccccc1C(=O)c1ccccc1 | 261 | 127 | 
45 | COC(=O)c1ccncc1 | 208 | 16.1 | 
46 | COC(=O)CCS | 166 |  | ready biodegradability: readily biodegradable
47 | CCOC(=O)C1CC(=O)C(=C(O)C2CC2)C(=O)C1 (configuration not stated) |  | 36 | log10 vapour pressure (mmHg): -4.79
48 | CCCCCCN1CC(C(=O)OC)CC1=O (configuration not stated) |  | 4 | 
49 | C#CC#C | 10.3 | -36.4 | log10 vapour pressure (mmHg): 3.12
50 | CCOC(=O)C(C(=O)OCC)C(=O)OCC | 253 | 29 | 

Row | Compound | boiling point [°C] | melting point [°C] | further results
51 | C[Si](C)(Oc1ccccc1)Oc1ccccc1 |  | -23 | 
52 | CCOCCOCCO | 196 | -76 | log10 vapour pressure (mmHg): -0.9
53 | COc1ccc(C(=O)c2ccccc2O)c(O)c1 |  | 68 | 
54 | O=[N+]([O-])c1ccc(Cl)cc1C(F)(F)F |  |  | ready biodegradability: not readily biodegradable; log10 BCF: 1.87; log10 biotransformation half-life (days): -0.36
55 | CCCCn1c2ccccc2c2ccccc21 |  | 58 | 
56 | O=C(OCC(O)CO)c1ccccc1Nc1ccnc2cc(Cl)ccc12 (configuration not stated) |  | 170 | 
57 | OCC(O)COc1ccc(Cl)cc1 (configuration not stated) |  | 78 | 
58 | Cc1cccc2ncccc12 | 263 | 19 | 
59 | Nc1cccc2c1C(=O)c1cccc(N)c1C2=O |  | 319 | 
60 | Clc1ccc2c(c1)oc1c(Cl)cccc12 |  |  | log10 biotransformation half-life (days): 0.58
61 | CC(C)N(C(=O)CCl)c1ccccc1 |  | 77 | log10 Koc (L/kg): 2.42; log10 vapour pressure (mmHg): -3.64
62 | CC(C)(C)C(O)C(Oc1ccc(Cl)cc1)n1cncn1 (configuration not stated) |  | 124 | log10 Koc (L/kg): 2.7; log10 vapour pressure (mmHg): -9.51
63 | CCCC(=O)Nc1ccccc1 |  | 97 | log10 Koc (L/kg): 1.71
64 | CCCCCCCCCCCCCCCCCC(=O)OC | 370 | 39.1 | log10 vapour pressure (mmHg): -4.87
65 | FC(F)(F)CCl | 6.1 | -106 | 
66 | COc1ccc(C=CC(=O)c2ccccc2)cc1 |  | 79 | 
67 | CC(C)NCC(O)c1cc(O)cc(O)c1 (configuration not stated) |  | 100 | 
68 | COC(N)=O | 177 | 54 | 
69 | C=CCCCCCCCCC(=O)OC | 248 | -27.5 | 
70 | CC1CCC(O)CC1 (configuration not stated) | 172 |  | 
71 | Cc1cccc(OC(N)=O)c1 |  |  | log10 Koc (L/kg): 1.48
72 | CCCS(=O)(=O)CCC | 270 | 29.5 | log10 vapour pressure (mmHg): -2.39
73 | NS(=O)(=O)c1ccc(SCCCO)cc1 |  | 117 | 
74 | C1CCC(CCCC2CCCCC2)CC1 | 292 | -17 | 
75 | Clc1cnccn1 | 154 |  | 

Row | Compound | boiling point [°C] | melting point [°C] | further results
76 | CCCCCCCCCCc1ccc(O)c(/C=N/O)c1 |  |  | ready biodegradability: readily biodegradable
77 | O=C1CC(c2ccccc2)Oc2ccccc21 (configuration not stated) |  | 77 | 
78 | CC(=O)CCc1ccccc1 | 234 | -13 | ready biodegradability: not readily biodegradable
79 | CCCCCCCCCCCCCCCCC1CCCCC1 | 385 | 33.6 | 
80 | COc1ccc(N=C=S)cc1 | 280 | 18 | 
81 | CC(=O)Oc1ccccc1C(=O)OC(=O)c1ccccc1OC(C)=O |  | 83 | 
82 | CN(C)C(=S)SC(=S)N(C)C |  | 110 | 
83 | CCCCCC/C=C\CCCCCCCC(=O)O |  | 0.2 | 
84 | CCOC(=O)c1ccc(O)cc1 | 298 | 117 | log10 Koc (L/kg): 2.21; ready biodegradability: readily biodegradable
85 | COc1ccc(NC(=O)N(C)C)cc1 |  |  | log10 Koc (L/kg): 1.4
86 | CCCCCCCCCCCCCCCCCCCCBr |  | 37.5 | log10 vapour pressure (mmHg): -6.08
87 | CCCCN(CCCC)C(C(N)=O)c1ccc(OC)cc1 (configuration not stated) |  | 134 | 
88 | O=C(OOC(=O)c1ccccc1)c1ccccc1 |  | 105 | ready biodegradability: readily biodegradable
89 | ClC1=C(Cl)C(Cl)(C2(Cl)C(Cl)=C(Cl)C(Cl)=C2Cl)C(Cl)=C1Cl |  | 122 | log10 Koc (L/kg): 4.52; log10 vapour pressure (mmHg): -5.66
90 | CN1C2CCC1CC(OC(=O)c1ccccc1)C2 (configuration not stated) |  | 49 | 
91 | C=C[Si](C)(C)O[Si](C)(C)C=C | 39 | -99.7 | 
92 | CC(C)=CCCC(C)=CC(=O)O | 250 |  | 
93 | CC1(C)CCCC1 | 87.5 | -69.8 | log10 biodegradation half-life (days): 1.28; log10 vapour pressure (mmHg): 1.88
94 | CCn1ccc2ccccc21 | 252 | 105 | 
95 | O=C(Nc1ccccc1)Nc1ccnc(Cl)c1 |  | 167 | log10 vapour pressure (mmHg): -9.46
96 | S=C(S)N1CCNCC1 |  | 228 | 
97 | CCCCCCCC/C=C\CCCCCCCCO |  |  | ready biodegradability: readily biodegradable
98 | C[C@]12CC[C@H](O)CC1=CC[C@@H]1[C@@H]2CC[C@@]2(C)[C@H]1CC[C@]2(C)O |  | 206 | 
99 | Cc1cc(-c2ccccc2)ccc1N |  | 43 | 
100 | CN(C)C(O)=Nc1ccc(-n2nc(C(C)(C)C)oc2=O)c(Cl)c1 |  | 193 | 

Row | Compound | boiling point [°C] | melting point [°C] | further results
101 | Nc1ccc(Cl)c([N+](=O)[O-])c1 |  | 103 | 
102 | CCCCS(=O)CCCC |  | 32.6 | 
103 | O=C(Br)c1ccccc1 | 218 | -24 | log10 vapour pressure (mmHg): -0.654
104 | N#CCCC[Si](Cl)(Cl)Cl | 238 |  | 
105 | Cc1cc(Cl)cc(Cl)c1 | 202 | 26 | 
106 | CC=C1CCCCC1 | 136 |  | 
107 | Clc1cccs1 | 128 | -71.9 | log10 vapour pressure (mmHg): 1.38
108 | CC1CCC(C)CC1 (configuration not stated) | 120 | -87 | log10 vapour pressure (mmHg): 1.25
109 | C[C@]12CC[C@@H]3c4ccc(O)cc4CC[C@H]3[C@@H]1CCC2=O |  | 260 | 
110 | CCCCc1ccc(N)cc1 | 261 |  | 
111 | C=CBr | 15.8 | -138 | log10 vapour pressure (mmHg): 3.01
112 | C=C=C | -34.4 | -136 | log10 vapour pressure (mmHg): 3.73
113 | Clc1ccc2cc(Cl)ccc2c1 | 285 | 140 | 
114 | CCCC(CC)CCC | 141 |  | 
115 | C=C(C)C(=O)OCc1ccccc1 |  |  | ready biodegradability: readily biodegradable
116 | CC(=O)OCC1=C(C(=O)O)N2C(=O)[C@@H](NC(=O)Cc3cccs3)[C@H]2SC1 |  | 160 | 
117 | CN(C)c1ccccc1N(C)C | 216 | 8.9 | 
118 | CCCCl | 46.5 | -123 | log10 Koa: 2.24; log10 vapour pressure (mmHg): 2.54
119 | O=[N+]([O-])c1c(Cl)cccc1-c1c[nH]cc1Cl |  | 124 | 
120 | CC(C)CCCC(C)C | 135 | -103 | 
121 | C1CCCCCC1 | 118 | -8 | log10 vapour pressure (mmHg): 1.33
122 | NC(=O)Nc1cccc(Br)c1 |  |  | log10 Koc (L/kg): 2.12
123 | O=C(O)CCl | 189 | 63 | log10 Henry constant (atm·m³/mol): -8.03; log10 vapour pressure (mmHg): -1.19; ready biodegradability: readily biodegradable
124 | CCCCCCCOC(=O)CC | 210 | -50.9 | 
